Assays:
M.TaqI-V21G = target: T1, M.TaqI-V21G (Thermus aquaticus, UniProt P14385, V21G); assay: DNA protection assay with M.TaqI variant V21G on phage lambda DNA; format: biochemical; settings: 1 μg phage lambda DNA, cofactor 300 μM, 60° C. for 4 h, then R.TaqI
T1 construct: made in house
Excerpt: Transfer kinetics of the activated ethyl (—CH2CH3), propyl (—CH2CH2CH3), prop-2-enyl (—CH2CH═CH2), prop-2-ynyl (—CH2C≡CH), but-2-ynyl (—CH2C≡CCH3), pent-2-ynyl (—CH2C≡CCH2CH3) and benzyl group (—CH2C6H5) from cofactors 3-9 by the DNA adenine-N6 methyltransferase M.TaqI and its variant V21 G, the DNA cytosine-C5 methyltransferase M.HhaI and its variant Q82A, the DNA cytosine-N4 methyltransferase M.BcnIB and the DNA cytosine-C5 methyltransferase M.SssI variant Q142A to phage lambda DNA (48502 base pairs) were investigated using a DNA protection assay. This assay makes use of the fact that DNA methyltransferase-catalyzed modifications of nucleobases within the recognition sequences of restriction endonucleases can protect the DNA against fragmentation by these enzymes. […] Unmodified DNA containing 5′-TCGA-3′ recognition sequences is readily fragmentated by R.TaqI. After DNA modification by M.TaqI in the presence of a cofactor with an activated group Z—R modified 5′-TCGA^Z—R-3′ sequences are formed and, as a result, R.TaqI is unable to fragment the modified DNA. Occurrence of fragmentation is then analyzed by agarose gel electrophoresis.
By varying the amounts of DNA methyltransferase, this assay is used to investigate the enzymatic activities of the different DNA methyltransferases with cofactors 3-9 and compare them to the enzymatic activities with the natural cofactor 1. The minimal amount of DNA methyltransferase needed to fully protect 1 μg of phage lambda DNA against restriction endonuclease fragmentation under the given experimental conditions is defined as one enzyme unit (u).
Afterwards a solution (30 μL) containing R.TaqI restriction endonuclease (40 u, MBI Fermentas), bovine serum albumin (0.166 mg/mL) and buffer (16.6 mM Tris hydrochloride, 166 mM sodium chloride, 8.3 mM magnesium chloride, pH 8.0) was added to each dilution and incubation at 60-65° C. was continued for 15 min. Loading buffer (10 μL, 0.25% bromphenol blue, 30% glycerol) was added to each sample, and aliquots (12 μL) were analyzed for the degree of protection by agarose gel (1%) electrophoresis. Parallel control experiments were performed with phage lambda DNA in the absence of M.TaqI and in the presence of M.TaqI (200 ng).
Therefore, the codon for V21 was changed to a codon for glycine by standard PCR mutagenesis (Ho et al., (1989) Gene 77, 51-59) and the correct DNA sequence of the complete gene was verified by DNA sequencing. […] The DNA protection assay with the V21G variant was performed as described for the wild type (Example 3A.1).

M.HhaI-Q82A = target: T2, M.HhaI-Q82A (Haemophilus parahaemolyticus, UniProt P05102, Q82A); assay: Modification of cytosine-C5 in duplex oligodeoxynucleotide III.IV by M.HhaI-Q82A, nucleoside analysis by HPLC/ESI-MS; format: biochemical; settings: duplex III.IV 12.5 μM, cofactor 300 μM, enzyme 15 μM, 37° C. over night
T2 construct: made in house
Excerpt: Transfer of the activated ethyl (CH2CH3), propyl (CH2CH2CH3), prop-2-enyl (CH2CHCH2), prop-2-ynyl group (CH2CCH), but-2-ynyl (CH2CCCH3), pent-2-ynyl (CH2CCCH2CH3) or benzyl group (CH2C6H5) from cofactors 3-9 by the DNA adenine-N6 methyltransferase M.TaqI, the DNA cytosine-C5 methyltransferase M.HhaI variant Q82A or the DNA cytosine-N4 methyltransferase M.BcnIB to DNA was first investigated using short duplex oligodeoxynucleotides as substrates. After enzymatic transfer the duplex oligodeoxynucleotides were enzymatically fragmented and the resulting modified nucleosides were analyzed by reversed-phase HPLC coupled with ESI-MS.
Therefore, the codon for Q82 was changed to a codon for alanine by standard Kunkel mutagenesis (Kunkel et al., […] Proc. Natl. Acad. Sci. USA 82, 488-492) and the correct DNA sequence of the complete gene was verified by DNA sequencing. Expression and purification of the Q82A variant was performed as described for the wild-type enzyme (Kumar et al., (1992) Biochemistry 31, 8648-8653; Klimasauskas et al., (1998) EMBO J. 17, 317-324). The presence of the amino acid substitution was verified by mass spectrometric analysis of purified M.HhaI-Q82A.
The duplex oligodeoxynucleotide III.IV was produced by mixing equal molar amounts (2.5 nmol) of complementary single-stranded oligodeoxynucleotide III (5′-[…]-3′) (SEQ ID NO. 3) and IV (5′-[…]-3′) (SEQ ID NO. 4) in water, heating at 85° C. for 5 min and slow cooling to room temperature. […] M.HhaI-Q82A was denatured by heating to 80° C. for 10 min and incubation with Proteinase K at 55° C. for 1 h. Hydrolysis products were removed by gel filtration (G-25 column, Amersham Biosciences).
The obtained solutions of duplex oligodeoxynucleotides were treated with buffer ( 1/10 volume, 100 mM Tris hydrochloride, 100 mM magnesium chloride, 10 mM zinc acetate, pH 7.5) containing Nuclease P1 (1500 u, Sigma) and calf intestine alkaline phosphatase (30 u, MBI Fermentas) and incubated at 37° C. for 4 h. Nucleosides were analyzed by reversed-phase HPLC (Discovery C18 150×2.1 mm, 5 μm, equipped with a Supelguard Discovery C18 20×2.1 mm, 5 μm, pre-column, Supelco, Germany) coupled with a mass spectrometric detector (HP 1100 series ESI-MS equipped with single quadruple). Compounds were eluted with methanol (0% for 6 min, followed by linear gradients to 56% in 15 min and to 80% in 1 min) in ammonium formate buffer (20 mM, pH 4.25 for cofactors 3, 4, 6 and pH 3.5 for cofactors 5, 7, 8) at a flow of 0.3 mL/min and detected at 280 nm. For on-line mass spectrometric detection post-column mobile phase modification (equal co-flow of 96% methanol, 4% formic acid and 1 mM sodium hydroxide) was used to enhance the detection efficiency of 2′-deoxycytidine and its derivatives. Mass spectra were recorded in 50-600 m/z range.

T1 sequence (P14385 whole entry V21G): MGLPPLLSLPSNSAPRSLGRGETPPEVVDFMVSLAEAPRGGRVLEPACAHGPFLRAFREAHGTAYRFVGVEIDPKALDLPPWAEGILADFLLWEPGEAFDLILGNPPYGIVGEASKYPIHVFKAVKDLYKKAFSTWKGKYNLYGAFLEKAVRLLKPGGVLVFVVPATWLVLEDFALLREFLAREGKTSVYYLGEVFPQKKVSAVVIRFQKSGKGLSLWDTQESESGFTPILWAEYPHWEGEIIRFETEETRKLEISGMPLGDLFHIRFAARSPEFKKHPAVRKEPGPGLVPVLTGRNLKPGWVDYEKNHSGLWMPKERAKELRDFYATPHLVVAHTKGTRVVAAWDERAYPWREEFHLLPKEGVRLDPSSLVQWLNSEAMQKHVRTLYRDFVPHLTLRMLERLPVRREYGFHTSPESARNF
T2 sequence (P05102 whole entry Q82A): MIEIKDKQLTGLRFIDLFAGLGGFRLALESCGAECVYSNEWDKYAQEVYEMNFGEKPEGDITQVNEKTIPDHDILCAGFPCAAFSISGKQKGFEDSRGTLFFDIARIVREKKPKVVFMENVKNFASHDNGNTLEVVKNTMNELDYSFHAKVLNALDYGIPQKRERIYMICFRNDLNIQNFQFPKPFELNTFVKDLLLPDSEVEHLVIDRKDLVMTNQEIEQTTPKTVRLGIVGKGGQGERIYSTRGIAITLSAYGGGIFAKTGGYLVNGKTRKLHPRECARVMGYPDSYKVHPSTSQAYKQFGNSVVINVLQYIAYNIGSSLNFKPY

| SMILES | specific activity of M.TaqI-V21G with the cofactor (M.TaqI-V21G) | cofactor function for M.HhaI-Q82A (transfer of group Z-R to cytosine-C5) (M.HhaI-Q82A) |
| --- | --- | --- |
| CC#CC[S+](CCC(N)C(=O)O)CC1OC(n2cnc3c(N)ncnc32)C(O)C1O (mixture of isomers) [Cofactor 7] | 80 u/μg | functions as a cofactor |
| CC[S+](CCC(N)C(=O)O)CC1OC(n2cnc3c(N)ncnc32)C(O)C1O (stereo not drawn) [Cofactor 3] | 5 u/μg | functions as a cofactor |
| CCC[S+](CCC(N)C(=O)O)CC1OC(n2cnc3c(N)ncnc32)C(O)C1O (stereo not drawn) [Cofactor 4] | < 5 u/μg | does not function as a cofactor |
| C=CC[S+](CCC(N)C(=O)O)CC1OC(n2cnc3c(N)ncnc32)C(O)C1O (stereo not drawn) [Cofactor 5] | 640 u/μg | functions as a cofactor |
| C#CC[S+](CCC(N)C(=O)O)CC1OC(n2cnc3c(N)ncnc32)C(O)C1O (stereo not drawn) [Cofactor 6] | 20 u/μg | functions as a cofactor |
| CCC#CC[S+](CCC(N)C(=O)O)CC1OC(n2cnc3c(N)ncnc32)C(O)C1O (stereo not drawn) [Cofactor 8] | 80 u/μg | functions as a cofactor |
